Here are results for twelve molecules from article PMC6264390, “Design, Synthesis and Structure-activity Studies of Rhodanine Derivatives as HIV-1 Integrase Inhibitors” (Molecules, 2010).

SMILES strings stand for the structures. Like-named read-outs stand apart in the source and are kept apart here.

One data set addresses T1, HIV-1 IN (Human immunodeficiency virus type 1 group M subtype B, UniProt P12497).
T1 construct: pre-incubated with purified recombinant IN (at a final concentration of 200 nM); made in house
Kind of data set: In vitro IN inhibition assay (3’-processing and strand transfer). In kind it is biochemical. The note with it: Mn2+ cofactor (7.5 mM MnCl2). The protocol: (§1) All compounds were dissolved in DMSO to a final stock concentration of 10 mM and stored at −20 °C. Initial screening for IN inhibitory effect was done at 100 μM and dilutions were made in DMSO. Compounds showing at least 50% inhibition at 100 μM were selected for IC50 determinations. γ-[^32P]-ATP was purchased from Perkin Elmer (Waltham, MA, USA). The expression system for wild-type IN was a generous gift of Dr. Robert Craigie, Laboratory of Molecular Biology, NIDDK, NIH (Bethesda, MD, USA). His-tagged APE1 was purified from an expression system kindly provided by Dr. Tom Curran, Department of Developmental Neurobiology, St. Jude Children’s Research Hospital (Memphis, TN, USA).
(§2) 21-mer oligonucleotides used in IN inhibition assay [21top (5’-[…]-3’) and 21bot (5’-ACTGCTAGAGATTTTCCA CAC-3’)] were purchased from Integrated DNA Technologies (Coralville, IA, USA) and purified by UV shadowing on polyacrylamide gel. The oligonucleotides used in APE1 inhibition assay [top strand: 5′-ATTTCACCGGTACG(F)TCTAGAATC CG-3′ containing the tetrahydrofuran synthetic abasic residue (F), and bottom strand: 3′-TAAAGTGG CCATGC(C)AGATCTTAGGC-5′] were purchased from The Midland Certified Reagent Company (Midland, TX, USA). To analyze the extent of 3’-processing and strand transfer with 5’-end labeled substrates, 21top was 5’-end labeled using T4 polynucleotide kinase (Epicentre, Madison, WI, USA) and [γ-^32P]-ATP (Perkin Elmer, Waltham, MA, USA). The kinase was heat-inactivated at 95 °C and 21bot was added in […]. The reaction mixture was allowed to cool slowly to room temperature, and purified through a spin-25 minicolumn (USA Scientific, Ocala, FL, USA) to separate annealed double-stranded oligonucleotide from unincorporated material. The oligonucleotides used in the APE1 inhibition assay were labeled using a similar protocol.
To determine the extent of 3’-processing and strand transfer, the test compounds, diluted in DMSO, were pre-incubated with purified recombinant IN (at a final concentration of 200 nM) in the reaction buffer [50 mM NaCl, 1 mM HEPES (pH 7.5), 50 μM EDTA, 50 μM dithiothreitol, 10% glycerol (w/v), 7.5 mM MnCl2, 0.1 mg mL–1 bovine serum albumin, 10 mM 2-mercaptoethanol, 10% dimethyl sulfoxide, and 25 mM MOPS (pH 7.2)] at 30 °C for 30 min. For Mg^2+ assay, 7.5 mM MgCl2 was substituted for MnCl2 and an optimal concentration of PEG was included in the reaction buffer. Following the pre-incubation, 20 nM of the 5’-end ^32P-labeled linear oligonucleotide substrate was added to the reaction mixture and incubated for an additional 1 h. Reactions were quenched by addition of 50X loading dye (98% deionized formamide, 10 mM EDTA, 0.025% xylene cyanol, and 0.025 % bromophenol blue). An aliquot was subjected to electrophoresis on a denaturing polyacrylamide gel (0.09 M tris–borate, pH 8.3, 2 mM EDTA, 20% acrylamide, 8M urea). Gels were dried under vacuum, exposed in a PhosphorImager cassette and visualized with a Typhoon 8610 Variable Mode Imager (Amersham Biosciences). Quantification was done with Image Quant 5.2 software. Percent inhibition (%I) was calculated using the following equation: %I = 100 × [1 − (D − C) / (N − C)] where C, N, and D are the fractions of 21-mer substrate converted into 19-mer (product of 3’-processing) or strand-transfer products for DNA alone, DNA plus IN, and DNA, IN plus test compound, respectively. IC50 values were determined by plotting the logarithm of test compound concentrations as a function of %I to obtain the concentration that produced 50% inhibition.

In data set [1] the target is T2, human apurinic/apyrimidinic endonuclease 1 (APE1) (Homo sapiens, UniProt P27695).
T2 construct: His; made in house
Kind of data set: APE1 inhibition assay. In kind it is biochemical. As to conditions: read-out: Inhibition of APE1 catalytic activity IC50. The protocol: as §1, §2
APE1 inhibition assay was performed as previously described. To determine the extent of endonucleolytic cleavage of the abasic residue, the test compounds, diluted in DMSO, were preincubated with recombinant APE1 at a final concentration of 0.05 nM in the reaction buffer [50 mM NaCl, 1 mM HEPES, pH 7.5, 50 μM EDTA, 50 μM dithiothreitol, 10% glycerol (w/v), 7.5 mM MnCl2, 0.1 mg mL‑1 bovine serum albumin, 10 mM 2-mercaptoethanol, 10% DMSO, and 25 mM MOPS, pH 7.2] at 30 °C for 10 min. Following preincubation, 200 nM of the 5′-end ^32P-labeled linear oligonucleotide substrate was added, and incubated for an additional 10 minutes. Reactions were quenched by the addition of an equal volume (16 μL) of loading dye (98% deionized formamide, 10 mM EDTA, 0.025% xylene cyanol, and 0.025% bromophenol blue). An aliquot (5 μL) was electrophoresed on a denaturing 20% polyacrylamide gel (0.09 M tris-borate pH 8.3, 2 mM EDTA, 20% acrylamide, 8 M urea). The gels were dried, exposed in a PhosphorImager cassette and analyzed using a Typhoon 8610 Variable Mode Imager (Amersham Biosciences). Quantification of enzyme inhibition was done using Image Quant 5.2 software. The percent inhibition (% I) was calculated using the following equation: %I = 100 × [1 − (D − C) / (N − C)] where C, N, and D are the fractions of 26-mer substrate converted to 13-mer incision products (or integration products) for DNA alone, DNA plus APE1, and DNA, APE1 plus test compound, respectively. IC50 values were determined by plotting the logarithm of compound concentration as a function of %I to obtain the concentration that produced 50% inhibition. An optimum concentration of APE1 enzyme, at which there is complete conversion of the synthetic abasic-site containing oligonucleotide substrate to its cleaved product without subsequent exonuclease activity, was used in the assay.

[2] abbreviates: read-out: Inhibition of IN catalytic activity IC50, 3’-Processing.
The mark [3] stands for this setting: read-out: Inhibition of IN catalytic activity IC50, Strand Transfer.

T2 sequence (P27695 whole entry): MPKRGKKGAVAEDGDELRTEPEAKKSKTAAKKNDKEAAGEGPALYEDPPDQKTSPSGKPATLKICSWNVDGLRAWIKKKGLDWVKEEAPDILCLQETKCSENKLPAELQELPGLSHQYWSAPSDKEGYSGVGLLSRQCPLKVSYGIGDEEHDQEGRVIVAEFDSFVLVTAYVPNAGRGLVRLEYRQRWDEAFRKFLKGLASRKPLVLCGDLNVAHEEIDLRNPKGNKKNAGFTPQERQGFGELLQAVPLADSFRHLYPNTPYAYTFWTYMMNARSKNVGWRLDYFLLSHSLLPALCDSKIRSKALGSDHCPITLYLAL

In the case of `O=C(Nc1cc(C(F)(F)F)cc(C(F)(F)F)c1)C(=S)NN1C(=O)C(=Cc2ccc([N+](=O)[O-])o2)SC1=S` [Compound 16, N-[3,5-bis(trifluoromethyl)phenyl]-2-{5-[(5-nitro-2-furyl)methylene]-4-oxo-2-thioxo-1,3-thiazolidin-3-yl}amino-2-thioxoacetamide], the melting point lay in the range of 195 to 196 °C. At HIV-1 IN (setting [2]), the IC50 is more than 100 µM. Moreover, at HIV-1 IN (setting [3]), the IC50 was determined as 74 ± 20 µM. Besides, in data set [1], the IC50 is more than 100 µM.
For `COc1ccc(NC(=O)C(=S)NN2C(=O)C(=Cc3ccc([N+](=O)[O-])o3)SC2=S)cc1OC` [Compound 18, N-(3,4-dimethoxyphenyl)-2-{5-[(5-nitro-2-furyl)methylene]-4-oxo-2-thioxo-1,3-thiazolidin-3-yl}amino-2-thioxoacetamide], the melting point was in the range of 156 to 157 °C. In addition, on HIV-1 IN (setting [2]), the half-inhibitory concentration (IC50) stood at 34 ± 10 µM. Also, on HIV-1 IN (setting [3]), the IC50 amounted to 14 ± 5 µM. The IC50 in data set [1] was more than 100 µM.
For `COc1cc(NC(=O)C(=S)NN2C(=O)C(=Cc3ccc([N+](=O)[O-])o3)SC2=S)cc(OC)c1OC` [Compound 19, 2-{5-[(5-Nitro-2-furyl)methylene]-4-oxo-2-thioxo-1,3-thiazolidin-3-yl}amino-2-thioxo-N-(3,4,5-tri-methoxyphenyl)acetamide], in that order: 201 to 202 °C, 40 ± 28 µM, 25 ± 11 µM and more than 100 µM.
`CCOc1cc(-n2cnnn2)c(OCC)cc1NC(=O)C(=S)NN1C(=O)C(=Cc2ccc([N+](=O)[O-])o2)SC1=S` [Compound 20, N-[2,5-diethoxy-4-(1H-tetrazol-1-yl)phenyl]-2-{5-[(5-nitro-2-furyl)methylene]-4-oxo-2-thioxo-1,3-thiazolidin-3-yl}amino-2-thioxoacetamide]: the melting point was in the range of 136 to 138 °C. Besides, the IC50 on HIV-1 IN (setting [2]) is more than 100 µM. In addition, the IC50 on HIV-1 IN (setting [3]) was found to be 85 ± 21 µM. Also, the IC50 in data set [1] is more than 100 µM.
`Cc1cc(NC(=O)C(=S)NN2C(=O)/C(=C\c3ccc([N+](=O)[O-])o3)SC2=S)ccc1-n1cnnn1` [Compound 21, N-[3-methyl-4-(1H-tetrazol-1-yl)phenyl]-2-{5-[(5-nitro-2-furyl)methylene]-4-oxo-2-thioxo-1,3-thia-zolidin-3-yl}amino-2-thioxoacetamide] came in with a melting point of 161 to 162 °C. The IC50 at HIV-1 IN (setting [2]) is more than 100 µM. Moreover, the IC50 at HIV-1 IN (setting [3]) is more than 100 µM. For the same molecule, in data set [1], the IC50 was more than 100 µM.
Molecule `COc1cc(C=C2SC(=S)N(NC(=S)C(=O)Nc3cc(OC)c(OC)c(OC)c3)C2=O)cc(OC)c1OC` [Compound 22, 2-{[4-Oxo-2-thioxo-5-(3,4,5-trimethoxybenzylidene)-1,3-thiazolidin-3-yl]amino}-2-thioxo-N-(3,4,5-tri-methoxyphenyl)acetamide] gave a melting point of 196 to 197 °C. In addition, the IC50 on HIV-1 IN (setting [2]) was more than 100 µM. The IC50 at HIV-1 IN (setting [3]) is 90 µM. Moreover, the IC50 in data set [1] is more than 100 µM.
Regarding `CCOc1cc(-n2cnnn2)c(OCC)cc1NC(=O)C(=S)NN1C(=O)C(=Cc2cc(OC)c(OC)c(OC)c2)SC1=S` [Compound 23, N-[2,5-diethoxy-4-(1H-tetrazol-1-yl)phenyl]-2-{[4-oxo-2-thioxo-5-(3,4,5-trimethoxybenzylidene)-1,3-thiazolidin-3-yl]amino}-2-thioxoacetamide], the melting point lay within 158 to 159 °C. The IC50 on HIV-1 IN (setting [2]) was more than 100 µM. Moreover, the IC50 on HIV-1 IN (setting [3]) was more than 100 µM. For the same molecule, the IC50 in data set [1] amounted to 83 µM.
Consider `COc1cc(C=C2SC(=S)N(NC(=S)C(=O)Nc3ccc(-n4cnnn4)c(C)c3)C2=O)cc(OC)c1OC` [Compound 24, N-[3-methyl-4-(1H-tetrazol-1-yl)phenyl]-2-{[4-oxo-2-thioxo-5-(3,4,5-trimethoxybenzylidene)-1,3-thiazolidin-3-yl]amino}-2-thioxoacetamide], for which the melting point was 173 to 174 °C. In addition, the IC50 on HIV-1 IN (setting [2]) was more than 100 µM. For the same molecule, the IC50 on HIV-1 IN (setting [3]) was more than 100 µM. Moreover, the IC50 in data set [1] is more than 100 µM.
Molecule `COc1cc(C=C2SC(=S)N(NC(=S)C(=O)Nc3cccc(C(F)(F)F)c3)C2=O)cc(OC)c1OC` [Compound 25, 2-{[4-Oxo-2-thioxo-5-(3,4,5-trimethoxybenzylidene)-1,3-thiazolidin-3-yl]amino}-2-thioxo-N-[3-(tri-fluoromethyl)phenyl]acetamide] came in with a melting point of 160 to 161 °C. Also, the IC50 at HIV-1 IN (setting [2]) was more than 100 µM. Further, on HIV-1 IN (setting [3]), the IC50 was more than 100 µM. Besides, the IC50 in data set [1] was more than 100 µM.
With `COc1cc(NC(=O)C(=S)NN2C(=O)C(=Cc3cc(Cl)ccc3O)SC2=S)cc(OC)c1OC` [Compound 27, 2-{[5-(5-Chloro-2-hydroxybenzylidene)-4-oxo-2-thioxo-1,3-thiazolidin-3-yl]amino}-2-thioxo-N-(3,4,5-trimethoxyphenyl)acetamide], the melting point lay in the range of 216 to 217 °C. At HIV-1 IN (setting [2]), the IC50 worked out at 83 ± 25 µM. Further, the half-inhibitory concentration (IC50) on HIV-1 IN (setting [3]) came out at 20 µM. Also, in data set [1], the IC50 was more than 100 µM.
`COc1cc(NC(=O)C(=S)NN2C(=O)C(=Cc3cc(Br)ccc3O)SC2=S)cc(OC)c1OC` [Compound 28, 2-{[5-(5-Bromo-2-hydroxybenzylidene)-4-oxo-2-thioxo-1,3-thiazolidin-3-yl]amino}-2-thioxo-N-(3,4,5-trimethoxyphenyl)acetamide]: the melting point was 208 to 209 °C. The IC50 on HIV-1 IN (setting [2]) came out at 44 ± 13 µM. On HIV-1 IN (setting [3]), the IC50 came out at 30 ± 19 µM. For the same molecule, the IC50 in data set [1] was more than 100 µM.
For `COc1cc(NC(=O)C(=S)NN2C(=O)C(=Cc3cccc([N+](=O)[O-])c3O)SC2=S)cc(OC)c1OC` [Compound 29, 2-{[5-(2-Hydroxy-3-nitrobenzylidene)-4-oxo-2-thioxo-1,3-thiazolidin-3-yl]amino}-2-thioxo-N-(3,4,5-trimethoxyphenyl)acetamide], in that order: 193 to 194 °C, 74 ± 18 µM, 72 ± 23 µM and more than 100 µM.

Usually melting point stands for the temperature of the solid-liquid transition. Usually IC50 stands for the concentration needed to halve the response being measured.
